Laboratory results taken from EP4292827A1, “INK COMPOSITION, ARTICLE, AND PRODUCTION METHOD THEREFOR” (Zeon Corporation, priority 2021, dated 2022).
Like-named read-outs stand apart in the source and are kept apart here.

Legend:
[1] = standard compounds with known logP values described in JIS 7260-117:2006, used for calibration curve; cited from earlier work

| chromatographic logP (physchem) | SMILES | logP [1] | further results |
| --- | --- | --- | --- |
|  | c1ccc(N(c2ccccc2)c2ccccc2)cc1 [Triphenylamine] | 5.7 |  |
|  | CC(=O)Nc1ccccc1 [Acetanilide] | 1.0 |  |
| 3.58 | C=CC(=O)OCCCCOC(=O)Oc1ccc(C(=O)Oc2ccc(C(=O)O[C@H]3CO[C@@H]4[C@H]3OC[C@H]4OC(=O)c3ccc(OC(=O)c4ccc(OC(=O)OCCCCOC(=O)C=C)cc4)cc3)cc2)cc1 [Example X3] |  |  |
| 5.11 | C=CC(=O)OCCCCCCCCOC(=O)Oc1ccc(C(=O)Oc2ccc(OC(=O)c3ccc(OC(=O)OCCCCCCCCOC(=O)C=C)cc3)c(C)c2)cc1 [Example X4] |  |  |
|  | C=CC(=O)OCCCCCCOc1ccc(C(=O)Oc2ccc(/C=N/N=C/c3ccc(OC(=O)c4ccc(OCCCCCCOC(=O)C=C)cc4)c(C(=O)OC)c3)cc2)cc1 [Example X1] |  | chromatographic logP (physchem; hplc): 6.01 |
| 1.75 | C=CC(=O)OCCOc1ccc(-c2ccc(C#N)cc2)cc1 [Example X2] |  |  |
